This is an account of results in patent US10351546B2, “Pyridin-3-yl acetic acid derivatives as inhibitors of human immunodeficiency virus replication” (priority 2015, dated 2019).

The assay relates to NL-RLuc virus. Briefly: Inhibition of HIV replication (NL-RLuc luciferase reporter virus in MT-2 cells). The settings on record: Human immunodeficiency virus 1, MT2, 120 h. Type of assay: cell-based. The text has this:
Inhibition of HIV replication: A recombinant NL-RLuc proviral clone was constructed in which a section of the nef gene form NL4-3 was replaced with the Renilla Luciferase gene. This virus is fully infectious and can undergo multiple cycles of replication in cell culture. In addition, the luciferous reporter provides a simple and easy method for quantitating the extent of virus growth and consequently, the antiviral activity of test compounds. The plasmid pNLRLuc contains the proviral NL-Rluc DNA cloned into pUC18 at the PvuII site. The NL-RLuc virus was prepared by transfection of 293T cells with the plasmid pNLRLuc. Transfections were performed using the LipofectAMINE PLUS kit form Invitrogen (Carlsbad, Calif.) according to the manufacturer and the virus generated was titered in MT-2 cells. For susceptibility analyses, the titrated virus was used to infect MT-2 cells in the presence of compound, and after 5 days of incubation, cells were processed and quantitated for virus growth by the amount of expressed luciferase. Assay media was RPMI 1640 supplemented with 10% heat inactivated fetal bovine serum (FBS), 100 units/ml penicillin G/100 units/ml streptomycin, 10 mM HEPES buffer pH 7.55 and 2 mM L-glutamine. The results form at least 2 experiments were used to calculate the EC50 values. Luciferase was quantitated using the Dual Luciferase kit form Promega (Madison, Wis.). Susceptibility of viruses to compounds was determined by incubation in the presence of serial dilutions of the compound. The 50% effective concentration (EC50) was calculated by using the exponential form of the median effect equation where (Fa)=1/[1+(ED50/drug conc.)^m](Johnson V A, Byington R T. Infectivity Assay. In Techniques in HIV Research. ed. Aldovini A, Walker B D. 71-76. New York: Stockton Press. 1990). Activity equal to A refers to a compound having an EC50≤100 nM, while B and C denote compounds having an EC50 between 100 nM and 1 uM (B) or >1 uM (C).

Like-named read-outs stand apart in the source and are kept apart here.

Take `CCOCCOCc1cc(N2CCC(C)(C)CC2)c([C@H](OC(C)(C)C)C(=O)O)c(C)n1` [Example 35, (S)-2-(tert-butoxy)-2-(4-(4,4-dimethylpiperidin-1-yl)-6-((2-ethoxyethoxy)methyl)-2-methylpyridin-3-yl)acetic acid]: the EC50 is, setting by setting: (read-out: Activity) 0.1 to 1 µM; (read-out: EC50 μM) 0.316 µM. As to `CCOCCOCc1nc(C)c([C@H](OC(C)(C)C)C(=O)O)c(N2CCC(C)(C)CC2)c1C` [Example 36, (S)-2-(tert-Butoxy)-2-(4-(4,4-dimethylpiperidin-1-yl)-6-((2-ethoxyethoxy)methyl)-2,5-dimethylpyridin-3-yl)acetic acid], the EC50 (read-out: Activity) was below 0.1 µM.

Regarding `CCOCCOCc1nc(C)c([C@H](OC(C)(C)C)C(=O)O)c(N2CCC(C)(C)CC2)c1Br` [Example 37, (S)-2-(5-bromo-4-(4,4-dimethylpiperidin-1-yl)-6-((2-ethoxyethoxy)methyl)-2-methylpyridin-3-yl)-2-(tert-butoxy)acetic acid], the EC50 (read-out: Activity) is below 0.1 µM. For `Cc1nc(C(=O)O)c(-c2ccc(OCCc3ccc(F)cc3)cc2)c(N2CCC(C)(C)CC2)c1[C@H](OC(C)(C)C)C(=O)O` [Example 38, (S)-5-(tert-Butoxy(carboxy)methyl)-4-(4,4-dimethylpiperidin-1-yl)-3-(4-(4-fluorophenethoxy)phenyl)-6-methylpicolinic acid], where the note is “read-out: Activity”, the EC50 was 0.1 to 1 µM. On the same count and under the same terms, to `COCCNC(=O)c1nc(C)c([C@H](OC(C)(C)C)C(=O)O)c(N2CCC(C)(C)CC2)c1-c1ccc(OCCc2ccc(F)cc2)cc1` [Example 39, (S)-2-(tert-Butoxy)-2-(4-(4,4-dimethylpiperidin-1-yl)-5-(4-(4-fluorophenethoxy)phenyl)-6-((2-methoxyethyl)carbamoyl)-2-methylpyridin-3-yl)acetic acid] belongs below 0.1 µM.

For `CNC(=O)c1nc(C)c([C@H](OC(C)(C)C)C(=O)O)c(N2CCC(C)(C)CC2)c1-c1ccc(OCCc2ccc(F)cc2)cc1` [Example 40, (S)-2-(tert-Butoxy)-2-(4-(4,4-dimethylpiperidin-1-yl)-5-(4-(4-fluorophenethoxy)phenyl)-2-methyl-6-(methylcarbamoyl)pyridin-3-yl)acetic acid], for the setting “read-out: Activity”, the EC50 is below 0.1 µM.

Turning to `Cc1nc(C(=O)N(C)CC2CCOCC2)c(-c2ccc(OCCc3ccc(F)cc3)cc2)c(N2CCC(C)(C)CC2)c1[C@H](OC(C)(C)C)C(=O)O` [Example 41, (S)-2-(tert-Butoxy)-2-(4-(4,4-dimethylpiperidin-1-yl)-5-(4-(4-fluorophenethoxy)phenyl)-2-methyl-6-(methyl((tetrahydro-2H-pyran-4-yl)methyl)carbamoyl)pyridin-3-yl)acetic acid], the EC50 (read-out: Activity) is below 0.1 µM. As for `Cc1nc(C(=O)N(C)CC2CCCCC2)c(-c2ccc(OCCc3ccc(F)cc3)cc2)c(N2CCC(C)(C)CC2)c1[C@H](OC(C)(C)C)C(=O)O` [Example 42, (S)-2-(tert-Butoxy)-2-(6-((cyclohexylmethyl)(methyl)carbamoyl)-4-(4,4-dimethylpiperidin-1-yl)-5-(4-(4-fluorophenethoxy)phenyl)-2-methylpyridin-3-yl)acetic acid], the EC50 by setting is: (read-out: Activity) below 0.1 µM; (read-out: EC50 μM) 0.004 µM.

As to `CCCCN(C)C(=O)c1nc(C)c([C@H](OC(C)(C)C)C(=O)O)c(N2CCC(C)(C)CC2)c1-c1ccc(OCCc2ccc(F)cc2)cc1` [Example 43, (S)-2-(tert-Butoxy)-2-(6-(butyl(methyl)carbamoyl)-4-(4,4-dimethylpiperidin-1-yl)-5-(4-(4-fluorophenethoxy)phenyl)-2-methylpyridin-3-yl)acetic acid], the EC50 (read-out: Activity) is below 0.1 µM. The same measure, in the same setting: to `Cc1nc(-c2nc3ccc(Cl)cc3[nH]2)c(-c2ccc(OCCc3ccc(F)cc3)cc2)c(N2CCC(C)(C)CC2)c1[C@H](OC(C)(C)C)C(=O)O` [Example 44, (S)-2-(tert-Butoxy)-2-(6-(6-chloro-1H-benzo[d]imidazol-2-yl)-4-(4,4-dimethylpiperidin-1-yl)-5-(4-(4-fluorophenethoxy)phenyl)-2-methylpyridin-3-yl)acetic acid] belongs below 0.1 µM; to `Cc1nc(-c2ncc(Cc3ccc(F)cc3)o2)c(-c2ccc(OCCc3ccc(F)cc3)cc2)c(N2CCC(C)(C)CC2)c1[C@H](OC(C)(C)C)C(=O)O` [Example 45, (S)-2-(tert-Butoxy)-2-(4-(4,4-dimethylpiperidin-1-yl)-6-(5-(4-fluorobenzyl)oxazol-2-yl)-5-(4-(4-fluorophenethoxy)phenyl)-2-methylpyridin-3-yl)acetic acid], below 0.1 µM; to `Cc1nc(N)c(-c2ccc(OCCc3ccc(F)cc3)cc2)c(N2CCC(C)(C)CC2)c1[C@H](OC(C)(C)C)C(=O)O` [Example 46, (S)-2-(6-Amino-4-(4,4-dimethylpiperidin-1-yl)-5-(4-(4-fluorophenethoxy)phenyl)-2-methylpyridin-3-yl)-2-(tert-butoxy)acetic acid], below 0.1 µM.

`CC(=O)Nc1nc(C)c([C@H](OC(C)(C)C)C(=O)O)c(N2CCC(C)(C)CC2)c1-c1ccc(OCCc2ccc(F)cc2)cc1` [Example 47, (S)-2-(6-Acetamido-4-(4,4-dimethylpiperidin-1-yl)-5-(4-(4-fluorophenethoxy)phenyl)-2-methylpyridin-3-yl)-2-(tert-butoxy)acetic acid]: the EC50 (read-out: Activity) is below 0.1 µM.

On to `Cc1nc(NS(C)(=O)=O)c(-c2ccc(OCCc3ccc(F)cc3)cc2)c(N2CCC(C)(C)CC2)c1[C@H](OC(C)(C)C)C(=O)O` [Example 48, (S)-2-(tert-Butoxy)-2-(4-(4,4-dimethylpiperidin-1-yl)-5-(4-(4-fluorophenethoxy)phenyl)-2-methyl-6-(methylsulfonamido)pyridin-3-yl)acetic acid], for which, where the note is “read-out: Activity”, the EC50 was below 0.1 µM. On to `CNc1nc(C)c([C@H](OC(C)(C)C)C(=O)O)c(N2CCC(C)(C)CC2)c1-c1ccc(OCCc2ccc(F)cc2)cc1` [Example 49, (S)-2-(tert-Butoxy)-2-(4-(4,4-dimethylpiperidin-1-yl)-5-(4-(4-fluorophenethoxy)phenyl)-2-methyl-6-(methylamino)pyridin-3-yl)acetic acid], for which the EC50 is, setting by setting: (read-out: Activity) below 0.1 µM; (read-out: EC50 μM) 0.001 µM. For `Cc1nc(N2CCCCC2)c(-c2ccc(OCCc3ccc(F)cc3)cc2)c(N2CCC(C)(C)CC2)c1[C@H](OC(C)(C)C)C(=O)O` [Example 53, (S)-2-(tert-Butoxy)-2-(4-(4,4-dimethylpiperidin-1-yl)-5-(4-(4-fluorophenethoxy)phenyl)-2-methyl-6-(piperidin-1-yl)pyridin-3-yl)acetic acid], the EC50 (read-out: Activity) was below 0.1 µM. Same read-out and setting: as for `Cc1nc(/C=C/COC(C)C)c(-c2ccc(OCCc3ccc(F)cc3)cc2)c(N2CCC(C)(C)CC2)c1[C@H](OC(C)(C)C)C(=O)O` [Example 54, (S,E)-2-(tert-Butoxy)-2-(4-(4,4-dimethylpiperidin-1-yl)-5-(4-(4-fluorophenethoxy)phenyl)-6-(3-isopropoxyprop-1-en-1-yl)-2-methylpyridin-3-yl)acetic acid], the figure is below 0.1 µM; as for `Cc1nc(/C=C\COC(C)C)c(-c2ccc(OCCc3ccc(F)cc3)cc2)c(N2CCC(C)(C)CC2)c1[C@H](OC(C)(C)C)C(=O)O` [Example 55, (S,Z)-2-(tert-Butoxy)-2-(4-(4,4-dimethylpiperidin-1-yl)-5-(4-(4-fluorophenethoxy)phenyl)-6-(3-isopropoxyprop-1-en-1-yl)-2-methylpyridin-3-yl)acetic acid], below 0.1 µM; as for `Cc1nc(CCCOC(C)C)c(-c2ccc(OCCc3ccc(F)cc3)cc2)c(N2CCC(C)(C)CC2)c1[C@H](OC(C)(C)C)C(=O)O` [Example 56, (S)-2-(tert-Butoxy)-2-(4-(4,4-dimethylpiperidin-1-yl)-5-(4-(4-fluorophenethoxy)phenyl)-6-(3-isopropoxypropyl)-2-methylpyridin-3-yl)acetic acid], below 0.1 µM. As for `CO/C=C/c1nc(C)c([C@H](OC(C)(C)C)C(=O)O)c(N2CCC(C)(C)CC2)c1-c1ccc(OCCc2ccc(F)cc2)cc1` [Example 57, (S,E)-2-(tert-Butoxy)-2-(4-(4,4-dimethylpiperidin-1-yl)-5-(4-(4-fluorophenethoxy)phenyl)-6-(2-methoxyvinyl)-2-methylpyridin-3-yl)acetic acid], the EC50 by setting is: (read-out: Activity) below 0.1 µM; (read-out: EC50 μM) 0.012 µM. Take `COCCc1nc(C)c([C@H](OC(C)(C)C)C(=O)O)c(N2CCC(C)(C)CC2)c1-c1ccc(OCCc2ccc(F)cc2)cc1` [Example 58, (S)-2-(tert-butoxy)-2-(4-(4,4-dimethylpiperidin-1-yl)-5-(4-(4-fluorophenethoxy)phenyl)-6-(2-methoxyethyl)-2-methylpyridin-3-yl)acetic acid]: under “read-out: Activity”, the EC50 is below 0.1 µM. Same read-out and setting: as for `Cc1nc(CCCN(C)C)c(-c2ccc(OCCc3ccc(F)cc3)cc2)c(N2CCC(C)(C)CC2)c1[C@H](OC(C)(C)C)C(=O)O` [Example 59, (S)-2-(tert-Butoxy)-2-(6-(3-(dimethylamino)propyl)-4-(4,4-dimethylpiperidin-1-yl)-5-(4-(4-fluorophenethoxy)phenyl)-2-methylpyridin-3-yl)acetic acid], the figure is below 0.1 µM.
